Results from PubChem BioAssay (NCI).
“And” between values parts separate entries of the source, which are not always exact repeats. Equal values may be shown once.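 These data come from cells grown in 96-well plates and exposed to compound for 48 hours at five concentrations. Abbreviation: GI50, concentration required for 50% inhibition of growth. The concentration for full growth arrest is given as TGI.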 Where a SMILES comes first, the peptide text is derived from it. Bridges are numbered along the chain shown (N, C = ends). The star is where a group is joined. Cbz = O=C(OCc1ccccc1)*

Assays:
Experiment in all cases: growth of human tumour cells (NCI), 48 h
[1] = tested on: HCT-15 colon
[2] = tested on: HL-60(TB) leukemia
[3] = tested on: HOP-62 NSCLC
[4] = tested on: K-562 leukemia
[5] = tested on: MALME-3M melanoma
[6] = tested on: MDA-MB-435
[7] = tested on: MOLT-4 leukemia
[8] = tested on: NCI-H522 lung
[9] = tested on: SK-MEL-28 melanoma
[10] = tested on: SK-OV-3 ovarian
[11] = tested on: SN12C renal
[12] = tested on: U251 CNS

| Structure (SMILES) | TGI [1] [µM] | TGI [2] [µM] | TGI [3] [µM] | TGI [4] [µM] | TGI [5] [µM] | TGI [6] | TGI [7] [µM] | TGI [8] [µM] | TGI [9] [µM] | TGI [10] [µM] | TGI [11] [µM] | TGI [12] [µM] | GI50 [7] [µM] | GI50 [11] [µM] | GI50 [12] [µM] |
| --- | --- | --- | --- | --- | --- | --- | --- | --- | --- | --- | --- | --- | --- | --- | --- |
| Cc1cn2cc(-c3cccs3)nc2s1 | > 100 | > 100 | > 100 | > 100 | > 100 | > 100 µM | > 100 | > 100 | > 100 | > 100 | > 100 | > 100 |  |  |  |
| O=C1c2ccccc2-c2nnc3c(c21)Cc1ccccc1C3 | > 10 | > 10 | > 10 | > 10 | > 10 | > 10 µM | > 10 | > 10 | > 10 | > 10 | > 10 | > 10 |  |  |  |
| C[N+]1(C)C2CC(OC(=O)C(CO)c3ccccc3)CC1C1OC12 (stereo not drawn) | > 100 | > 100 | > 100 | > 100 | > 100 | > 100 µM | > 100 | > 100 | > 100 | > 100 | > 100 | > 100 |  |  |  |
| CCNC1=C(NC(=O)c2ccc(F)cc2)C(=O)c2ccccc2C1=O | > 100 | > 100 | > 100 | > 100 | 47.5 | 35.9 µM | > 100 | > 100 | > 100 | > 100 | > 100 |  |  |  |  |
| C#CCOC(=O)C(N)CC(N)=O (stereo not drawn) | > 100 | > 100 | > 100 | > 100 | > 100 | > 100 µM | > 100 | > 100 | > 100 | > 100 | > 100 | > 100 |  |  |  |
| Cc1ccc2c(c1C)C(=O)C1(C2)Cc2ccc3c(c2C1=O)CCC3 (stereo not drawn) | > 100 | > 100 |  | > 100 | > 100 | > 100 µM | > 100 | > 100 | > 100 | > 100 | > 100 | > 100 |  |  |  |
| CC1(C)CNC(=O)C2(CCCO2)CNC(C)(C)CNC(=O)C2(CCCO2)CN1 (stereo not drawn) | > 10 | > 10 | > 10 | > 10 | > 10 | > 10 µM | > 10 | > 10 | > 10 | > 10 | > 10 | > 10 |  |  |  |
| COc1ccc(/C=C/C(=O)c2cc(OC)cc(OC)c2)cc1 | 7.9 | 9.73 | 14.6 | > 100 | 27.8 | 3.45 µM | > 26.6 | 6.29 | 27 | 27.5 | 13.5 | 7.41 |  |  |  |
| Cc1ccc(-c2n[nH]c(=O)n2/N=C\c2ccccc2O)cc1 | > 100 | > 100 | > 100 | > 100 | > 100 | > 100 µM | > 100 | > 100 | > 100 | > 100 | > 100 | > 100 |  |  |  |
| C=C1c2nc3ccccc3n2C=C(c2ccc(OC)cc2)N1c1ccc(OCCN2CCCCC2)cc1 | > 100 | 20 | > 100 | > 100 | > 100 | > 74.9 µM | 38.6 | > 100 | > 100 | > 100 | > 100 | > 91.3 |  |  |  |
| NC(N)=N/N=C/c1c(-c2ccccc2[N+](=O)[O-])nc2sccn12 | > 100 | 40.4 | 69.5 | 33.8 | 32.3 | 35.1 µM | 46 | 39.8 | > 100 | > 100 | > 100 | 31.2 |  |  |  |
| CC(C#N)(c1ccccc1)N(CCc1ccccc1)C(=O)Oc1ccccc1 (stereo not drawn) | > 100 | > 100 | > 100 | > 100 | > 100 | > 100 µM | > 100 | > 100 | > 100 | > 100 | > 100 | > 100 |  |  |  |
| CC1=C(O)C(=O)C=C2C1=CC=C1[C@@]2(C)CC[C@@]2(C)C3C[C@@H](C)C(=O)[C@@H](O)[C@]3(C)CC[C@]12C (stereo partly drawn) | 3.73 | 2.76 | 11.6 | 5.17 | 3.97 | 6.6 µM | 3.21 | 2.34 | 4.17 | 22.2 | 4.89 | 2.88 |  |  |  |
| COC(=O)c1cc2ccc(O)c(O)c2cn1 | 40.4 | > 100 | 36.2 | 8.16 | 27.5 | 3.25 µM and 3.21 µM | > 100 | 37.9 | 35.6 | 92.3 | 17.3 | 31.2 | 4.6 | 5.22 | 16.9 |
| CC(C)(C)C(=O)/C=C(\OB(F)F)C(C)(C)C | > 100 | > 100 | > 100 | > 100 | > 100 | > 100 µM | > 100 | > 100 | > 100 | > 100 | > 100 | > 100 |  |  |  |
| CNC(=O)C1CCCCNC(=O)CCC(NC(=O)OCc2ccccc2)C(=O)N1 (stereo not drawn) (Cbz-Glu-Lys-NHMe; lactam 1-2; configuration not given here) | > 100 | > 100 | > 100 | > 100 | > 100 | > 100 µM | > 100 | > 100 | > 100 | > 100 | > 100 | > 100 |  |  |  |
| CC(C)=CCC[C@@H](C)[C@H]1CC[C@@]2(C)[C@@H]3CC[C@H]4C(C)(C)[C@@H](O)CC[C@@]45C[C@@]35CC[C@]12C | > 100 | > 95.4 | 59.6 | > 100 | > 100 | > 68.8 µM | > 87.2 | 49.3 | > 100 | > 100 | 41.8 | 31.1 |  |  |  |
| Cc1nnc2n1N=C(c1cc(F)c(Cl)cc1Cl)/C(=C/c1ccc(-c3ccc([N+](=O)[O-])cc3)o1)S2 | > 100 | > 100 | > 100 | > 100 | > 100 | > 100 µM | > 100 | > 100 | > 100 | > 100 | > 100 | > 100 |  |  |  |

| Structure (SMILES) | TGI [1] [µM] | TGI [2] [µM] | TGI [3] [µM] | TGI [4] [µM] | TGI [5] [µM] | TGI [6] | TGI [7] [µM] | TGI [8] [µM] | TGI [9] [µM] | TGI [10] [µM] | TGI [11] [µM] | TGI [12] [µM] | GI50 [7] [µM] | GI50 [11] [µM] | GI50 [12] [µM] |
| --- | --- | --- | --- | --- | --- | --- | --- | --- | --- | --- | --- | --- | --- | --- | --- |
| O=C(O)c1cc(CCc2ccc(O)c(O)c2)ccc1O | > 100 | 59.2 | > 100 | 45.8 | > 100 | > 100 µM | > 100 | > 100 |  | > 100 | > 100 | > 100 |  |  |  |
| COC1=C(C(c2cc(OC)c(OC)c(OC)c2)c2cc3c(cc2OC)OCO3)C(=O)OC1 (stereo not drawn) | > 100 | 49.9 | > 84 | > 100 | > 73.2 | 17.5 µM | > 100 | > 100 | 87.9 | > 78.6 | > 100 | > 96.7 |  |  |  |
| COc1cc2nc(-c3cccs3)nc(Nc3cccc([N+](=O)[O-])c3)c2cc1OC | 31.8 | > 100 | 36.1 | > 100 | 35.2 | 31.6 µM | > 100 | 38.1 | 58 | 41.5 | 33.2 | 32.4 |  |  |  |
| Cc1ccc(S(=O)(=O)NNC(=O)Nc2cccc(C(F)(F)F)c2)cc1 | > 100 | > 100 | > 100 | > 100 | > 100 | > 100 µM | > 100 | > 100 | > 100 | > 100 | > 100 | > 100 |  |  |  |
| CC(NCc1c(O)ccc2c(-c3ccccc3)cc(=O)oc12)C(=O)O (stereo not drawn) | > 100 | > 100 | > 100 | > 100 | > 100 | > 100 µM | > 100 | > 100 | > 100 | > 100 | > 100 | > 100 |  |  |  |
| CC(=O)N1C=Cc2c(c(C)c3c([nH]c4ccccc43)c2C)C1 | 4.99 | > 100 | 17.5 | > 100 | 23.1 | 27.4 µM | > 100 | 29.7 | 31.8 | 27 | 20.3 | 19.4 |  |  |  |
| O=C1c2cc(Br)ccc2-c2ccc3c4ccc5c6c(ccc(c7ccc1c2c73)c64)C(=O)c1cc(Br)ccc1-5 | > 100 | > 100 | > 100 | > 100 | > 100 | > 100 µM |  | > 100 | > 100 | > 100 | > 100 | > 100 |  |  |  |
| O=C(CNc1ccccc1[N+](=O)[O-])Nn1cnc2ccc(S(=O)(=O)Nc3ccccc3[N+](=O)[O-])cc2c1=O | > 100 | > 100 | > 100 | > 100 | > 100 | > 100 µM | > 100 | > 100 | > 100 | > 100 | > 100 | > 100 |  |  |  |
| Cc1cccc(Nc2nc3ccccc3nc2NS(=O)(=O)c2ccc(N)cc2)c1 | > 100 | > 100 | > 100 | > 100 | > 100 | > 100 µM | 59.5 | > 100 | > 100 | > 100 | > 100 | 53.8 |  |  |  |
| COc1ccc2c(c1)/C(=C/c1c(O)[nH]c(=S)[nH]c1=O)C=N2 | > 100 | > 100 | > 100 | > 100 | > 100 | > 100 µM | > 100 | > 100 | > 100 | > 100 | > 100 | > 100 |  |  |  |
| Brc1ccc(C2=NCSC(c3ccc(Br)cc3)=N2)cc1 | > 100 | 34.8 | > 100 | > 100 | > 100 | > 100 µM | 48.6 | 58.4 | > 100 | > 100 | > 100 | 53.3 |  |  |  |
| CCC(C)N1CN(c2ccccc2)C2(CCN(CC3COc4ccccc4O3)CC2)C1=O (stereo not drawn) | 61.1 | 34.4 | 41.7 | 46.9 | 34.6 | 49.7 µM | 66.4 | 68.6 | > 100 | > 100 | 84.2 | 38.7 |  |  |  |
| CC(C)(C)N(Cc1ccccc1)C(=O)/C=C\S(=O)c1ccccc1 (stereo not drawn) | 18 | 6.54 | 21.2 | > 100 | 12.2 | 11.3 µM | 7.39 | 2.7 | 21.7 | 19.9 | 8.66 | 15.5 |  |  |  |
| CC[C@@H]1/C=C/C=C/C[C@H](C)[C@@H](O)[C@@H](C)C(=O)[C@H](C)[C@@H](O)[C@H](C)C(=O)[C@H](C)[C@@H](O)[C@H](C)/C=C/C(=O)O[C@H]2[C@@H](C)[C@@H](CC1)O[C@@]1(CC[C@@H](C)[C@@H](CC(C)O)O1)[C@@H]2C (stereo partly drawn) | > 25 | 7.27 | > 25 | > 25 | > 24 | > 18.3 µM | 7.65 | 11.4 | > 25 | > 21.3 | 9.9 | > 25 |  |  |  |
| COc1cccc(OC)c1C1ON=C(c2ccccc2)N1C12CC3CC(CC(C3)C1)C2 (stereo not drawn) | > 100 | 4.63 | > 100 | > 100 | > 100 | > 100 µM | > 100 | > 100 | > 100 | > 100 | > 100 | > 100 |  |  |  |
| O=C1CSCC(=O)Nc2ccccc2N1 | > 100 | > 100 | > 100 | > 100 | > 100 | > 100 µM | > 100 | > 100 | > 100 | > 100 | > 100 | > 100 |  |  |  |
| COC(=O)c1c(O)c(C#N)c2[nH]c3ccccc3n2c1=O | > 100 | > 100 | > 100 | > 100 | > 100 | > 100 µM | > 100 | > 100 |  | > 100 | > 100 | > 100 |  |  |  |
